Assay results from US9624213B2 (Plexxikon Inc., priority 2011, dated 2017).

The compounds below were run against B-Raf V600E (Homo sapiens (Human), UniProt P15056, V600E) (assay: B-Raf V600E kinase biochemical activity (AlphaScreen, biotin-MEK1 substrate)). Settings: 100 μM ATP.
Experimental: Assays for biochemical and cell based activity are known in the art, for example, as described in PCT publication WO 2007/002433, the disclosure of which is hereby incorporated by reference as it relates to such assays. For example, the biochemical activity IC50 values are determined with respect to inhibition of B-Raf V600E kinase activity or p-Erk kinase activity, where inhibition of phosphorylation of a peptide substrate is measured as a function of compound concentration. Compounds to be tested are diluted in dimethyl sulfoxide to a concentration of 0.1 mM. These are serially diluted 15 μL into 30 μL of dimethyl sulfoxide seven times in 96 well plates for a total of 8 dilution points, and for each dilution point 1 μL is added to a well of an assay plate. Plates are prepared such that each well in a 384 well plate contains 1 μL of compound in 10 μL volume with 0.1 ng Raf enzyme (i.e. any of B-Raf, c-Raf-1 or B-Raf V600E, Upstate Biotechnology or prepared by methods known to one of skill in the art), 50 mM HEPES, pH 7.0, 50 mM NaCl, 2 mM MgCl2, 1 mM MnCl2, 0.01% Tween-20, 1 mM DTT, and 100 nM biotin-MEK1 as substrate. The reaction is started with addition of 10 μL of 200 μM ATP (i.e. final 100 μM ATP). After incubation of the kinase reaction for 45 minutes at room temperature, 5 μL/well of Stop Solution is added (25 mM Hepes pH 7.5, 100 mM EDTA, 0.01% BSA with donor beads (Streptavidin coated beads, Perkin Elmer), acceptor beads (Protein A coated, Perkin Elmer), and anti phosphor MEK1/2 antibody (CellSignal), each at final concentration 10 μg/mL). The plates are incubated for 3 hours at room temperature and read on Envision reader (Perkin Elmer). Phosphorylation of Mek1 results in binding of the anti-phosphor-MEK1/2antibody and association of the donor and acceptor beads such that signal correlates with kinase activity. The signal vs. compound concentration is used to determine the IC50.

B-Raf V600E, sequence (P15056 whole entry V600E): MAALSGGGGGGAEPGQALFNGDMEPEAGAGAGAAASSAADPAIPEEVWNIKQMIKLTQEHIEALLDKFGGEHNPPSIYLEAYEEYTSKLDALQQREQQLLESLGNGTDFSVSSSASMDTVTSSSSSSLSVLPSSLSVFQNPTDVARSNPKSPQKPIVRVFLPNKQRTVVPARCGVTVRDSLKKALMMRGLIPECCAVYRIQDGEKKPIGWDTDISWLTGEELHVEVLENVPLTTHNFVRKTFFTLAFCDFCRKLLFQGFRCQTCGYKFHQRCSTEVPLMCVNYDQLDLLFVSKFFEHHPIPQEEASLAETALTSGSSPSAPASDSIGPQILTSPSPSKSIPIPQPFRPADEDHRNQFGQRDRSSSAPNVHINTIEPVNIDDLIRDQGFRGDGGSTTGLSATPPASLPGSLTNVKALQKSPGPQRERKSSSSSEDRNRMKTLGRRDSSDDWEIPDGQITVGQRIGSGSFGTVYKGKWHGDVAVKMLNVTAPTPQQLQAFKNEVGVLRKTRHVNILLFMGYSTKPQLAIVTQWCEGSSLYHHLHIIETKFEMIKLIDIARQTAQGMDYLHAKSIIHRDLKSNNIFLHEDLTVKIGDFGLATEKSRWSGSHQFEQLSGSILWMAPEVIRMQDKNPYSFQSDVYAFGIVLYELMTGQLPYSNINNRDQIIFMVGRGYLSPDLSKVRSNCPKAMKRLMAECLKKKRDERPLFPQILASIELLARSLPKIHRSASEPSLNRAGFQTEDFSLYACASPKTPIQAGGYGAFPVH

IC50, < 0.1 µM:
Cn1cc(-c2cnc3[nH]cc(C(=O)c4cccc(NS(=O)(=O)CC5CC5)c4F)c3c2)cn1 [Compound P-0042, 1-cyclopropyl-N-[2-fluoro-3-[5-(1-methylpyrazol-4-yl)-1H-pyrrolo[2,3-b]pyridine-3-carbonyl]phenyl]methanesulfonamide]
CN(C)S(=O)(=O)Nc1ccc(F)c(C(=O)c2c[nH]c3ncc(-c4ccc(C5(C#N)CC5)cc4)cc23)c1F [Compound P-0237, 5-[4-(1-cyanocyclopropyl)phenyl]-3-[3-(dimethylsulfamoylamino)-2,6-difluoro-benzoyl]-1H-pyrrolo[2,3-b]pyridine]
CCN(C)S(=O)(=O)Nc1ccc(F)c(C(=O)c2c[nH]c3ncc(-c4ccc(C5(C#N)CC5)cc4)cc23)c1F [Compound P-0239, 5-[4-(1-cyanocyclopropyl)phenyl]-3-[3-[[ethyl(methyl)sulfamoyl]amino]-2,6-difluoro-benzoyl]-1H-pyrrolo[2,3-b]pyridine]
N#CC1(c2ccc(-c3cnc4[nH]cc(C(=O)c5c(F)ccc(NS(=O)(=O)N6CCCC6)c5F)c4c3)cc2)CC1 [Compound P-0248, N-[3-[5-[4-(1-cyanocyclopropyl)phenyl]-1H-pyrrolo[2,3-b]pyridine-3-carbonyl]-2,4-difluoro-phenyl]pyrrolidine-1-sulfonamide]
